# Measured values reported in patent US20230212274A1, “METHOD FOR TREATING ASTHMA OR ALLERGIC DISEASE” (THE CHILDREN'S MEDICAL CENTER CORPORATION, priority 2020, published 2023).
# Entries after “also recorded” stand apart in the source; their conditions may differ.
# B1: IL-33: cytokine added to cell cultures (protein, UniProt O95760 1-270, looked up)
# Interleukin-33: MKPKMKYSTNKISTAKWKNTASKALCFKLGKSQQKAKEVCPMYFMKLRSGLMIKKEACYFRRETTKRPSLKTGRKHKRHLVLAACQQQSTVECFAFGISGVQKYTRALHDSSITGISPITEYLASLSTYNDQSITFALEDESYEIYVEDLKKDEKKDKVLLSYYESQHPSNESGDGVDGKMLMVTLSPTKDFWLHANNKEHSVELHKCEKPLPDQAFFVLHNMHSNCVSFECKTDPGVFIGVKDNHLALIKVDSSENLCTENILFKLSET
# B2: recombinant GDF15: recombinant cytokine growth and differentiation factor 15, secreted ligand of the TGF-beta superfamily (protein, UniProt Q99988 195-308, looked up)
# Growth/differentiation factor …: ARARNGDHCPLGPGRCCRLHTVRASLEDLGWADWVLSPREVQVTMCIGACPSQFRAANMHAQIKTSLHRLKPDTVPAPCCVPASYNPMVLIQKTDTGVSLQTYDDLLAKDCHCI
# B3: IL-25: cytokine added to cell cultures (protein, UniProt Q9H293 33-177, looked up)
# Interleukin-25: YSHWPSCCPSKGQDTSEELLRWSTVPVPPLEPARPNRHPESCRASEDGPLNSRAISPWRYELDRDLNRLPQDLYHARCLCPHCVSLQTGSHMDPRGNSELLYHNQTVFYRRPCHGEKGTHKGYCLERRLYRVSLACVCVRPRVMG
# Columns and labels:
# GDF15 = experiment: in vitro co-culture of GDF15-expressing Notch4high Treg cells with naive ILC2 cells; assay type: cell-based, mouse; conditions: Treg cells from lungs of OVA+UFP-treated mice
# Protocol: (§1) FIGS. 5A-5L show Notch4 promotes ILC2 activation via a GDF15-dependent mechanism (FIG. 5A) Flow cytometric analysis and frequencies of IL13^+ ILC2 (Lineage^- T1/ST2^+ cells) in mice of respective genotypes treated as indicated. (FIG. 5B and FIG. 5C) In vitro suppression assays of ILC2 cells isolated from OVA+UFP-treated Foxp3^YFPCre mice and incubated with Treg cells of mice of the respective genotypes treated as indicated. Additional treatment of in vitro cultures with isotype control or anti-Notch4 mAb is also indicated. (FIG. 5D) Flow cytometric analysis and frequencies of GDF15^+ lung Treg cells of mice of the respective genotypes treated as indicated. (FIG. 5E) Flow cytometric analysis and frequencies of IL-13 expression in cultures of naive ILC2 stimulated with IL-33, GDF15 or both. (FIG. 5F) IL-13 expression in naive ILC2 incubated with Notch4^high Treg cells from OVA+UFP treated mice without or with blocking GDF15 peptide. (FIG. 5G and FIG. 5H) AHR and IL13^+ ILC2 frequencies in Foxp3^YFPCre mice treated as indicated and challenged in the presence of carrier protein or GDF15 blocking peptide. (FIG. 5I to FIG. 5K) AHR and frequencies of the indicated lung cell types in sham or OVA+UFP sensitized and challenged Foxp3^YFPCre and Foxp3^YFPCreNotch4^Δ/Δ mice treated with recombinant GDF15, as indicated. Each symbol represents an independent sample. […]
# [1] = system: allergic airway inflammation; experiment: OVA+UFP allergic airway inflammation in mice, intra-tracheal instillation; assay type: in vivo, mouse
# Protocol: FIGS. 5A-5L show Notch4 promotes ILC2 activation via a GDF15-dependent mechanism (FIG. 5A) Flow cytometric analysis and frequencies of IL13^+ ILC2 (Lineage^- T1/ST2^+ cells) in mice of respective genotypes treated as indicated. (FIG. 5B and FIG. 5C) In vitro suppression assays of ILC2 cells isolated from OVA+UFP-treated Foxp3^YFPCre mice and incubated with Treg cells of mice of the respective genotypes treated as indicated. Additional treatment of in vitro cultures with isotype control or anti-Notch4 mAb is also indicated. (FIG. 5D) Flow cytometric analysis and frequencies of GDF15^+ lung Treg cells of mice of the respective genotypes treated as indicated. (FIG. 5E) Flow cytometric analysis and frequencies of IL-13 expression in cultures of naive ILC2 stimulated with IL-33, GDF15 or both. (FIG. 5F) IL-13 expression in naive ILC2 incubated with Notch4^high Treg cells from OVA+UFP treated mice without or with blocking GDF15 peptide. (FIG. 5G and FIG. 5H) AHR and IL13^+ ILC2 frequencies in Foxp3^YFPCre mice treated as indicated and challenged in the presence of carrier protein or GDF15 blocking peptide. (FIG. 5I to FIG. 5K) AHR and frequencies of the indicated lung cell types in sham or OVA+UFP sensitized and challenged Foxp3^YFPCre and Foxp3^YFPCreNotch4^Δ/Δ mice treated with recombinant GDF15, as indicated. Each symbol represents an independent sample. Numbers in flow plots indicate percentages. Error bars indicate SEM. Statistical tests: two-way ANOVA with Sidak’s post hoc analysis (FIGS. 5A to 5D, 5G and 5I); One-way ANOVA with Dunnett’s post hoc analysis (FIGS. 5E and 5F, 5H and 5J). *P<0.05, ***P<0.001, ****P<0.0001. Data representative of two or three independent experiments. n=5-15 mice per group.
# (FIG. 18A) Representative PAS-stained sections of lung tissues isolated from Foxp3^YFPCre and Foxp3^YFPCreNotch4^Δ/Δ with either PBS or OVA+UFP, the latter either alone or supplemented with GDF15, as indicated (200X magnification). (FIG. 18B) Inflammation score for the respective mouse groups. (FIG. 18C) Frequencies of ILC in the lungs of respective mouse groups. (FIG. 18D) IL-4, IL-13, and IL-17 expression in lung Foxp3^-CD4^+ Teff cells in the respective groups. (FIG. 18E) IL-4, IL-13, and IL-17 expression in lung Foxp3^+CD4^+ Treg cells in the respective groups. Error bars indicate SEM. Statistical tests. One-way ANOVA with Dunnett’s post hoc analysis. (FIGS. 18A-18E) **P<0.01, ***P<0.001, ****P<0.0001. Data representative of two or three independent experiments. n=10 mice per group.
# (FIG. 19A) Representative PAS-stained sections of lung tissues isolated from Foxp3^YFPCre, treated with GDF15 blocking peptide segregated into PBS, or OVA+UFP-treated groups (200X magnification). (FIG. 19B) Inflammation score for the respective mouse groups. […]
# [2] = system: Notch4 expression on differentiating iTreg cells; experiment: in vitro iTreg cell differentiation: OT-II T cells co-cultured with OVA323-339- or OVA323-339+UFP-pulsed alveolar macrophages, Notch4 by flow cytometry; assay type: cell-based, mouse; conditions: for Notch4 expression on differentiating iTreg cells: cytokine added to co-cultures with OVA323-339 / OVA323-339+UFP-pulsed alveolar macrophages
# Excerpt: (§2) FIGS. 1A-1H show Notch4 expression on lung Treg cells in allergic airway inflammation. (FIG. 1A) RT-PCR of Notchl-4 transcripts in lung Treg and Teff cells isolated from PBS, OVA and OVA+UFP mouse groups. (FIG. 1B and FIG. 1C) Flow cytometric analysis, cell frequencies and mean fluorescence intensity (MFI) of Notch4 expression on lung Treg and Teff cells in the respective mouse groups. (FIG. 1D and FIG. 1E) Flow cytometric analysis and cell frequencies of Notch4 expression on OT-II^+CD4^+Foxp3^+ T cells generated in co-cultures with sham or OVA323-339+UFP-pulsed alveolar macrophages without or with IL-6 or anti-IL-6R mAb. (FIG. 1F) Flow cytometric analysis and cell frequencies of Notch4 expression in Helios^high and Helios^low lung Treg cells isolated from the respective mouse groups. (FIG. 1G) Flow cytometric analysis and cell frequencies of Notch4 expression on in vitro differentiated Treg cells derived from naive CD4^+ T cells isolated from Foxp3^YFPCre, Foxp3^YFPCreIl6r^Δ/Δ and Foxp3^YFPCreStat3^Δ/Δ mice and either untreated or treated with IL-6. (FIG. 1H) ChIP assays for the binding of STAT3 and control (IgG) antibodies to the Notch4 promoter in lung Treg cells of OVA+UFP-treated Foxp3^YFPCre, and Foxp3^YFPCreStat3^Δ/Δ mice. Each symbol represents one mouse. Numbers in flow plots indicate percentages. Error bars indicate SEM. Statistical tests for all panels: One-way ANOVA with Dunnett’s post hoc analysis. *P<0.05, **P<0.01, ***P<0.001, ****P<0.0001. Data representative of two or three independent experiments. (FIGS. 1A, 1D to 1F) n=5, (FIGS. 1B and 1C) n=15 and (FIGS. 1G and 1H) n=6 replicates per group.
# FIGS. 7A-7E show Notch4 expression on lung Treg cells in allergic airway inflammation. (FIGS. 7A to 7C) Flow cytometric analysis, cell frequencies and mean fluorescence intensity (MFI) of Notch1, 2 and 3 expression on lung Treg and Teff cells in the respective mouse groups. (FIG. 7D) Cell frequencies of Notch4 expression on OT-II^+CD4^+Foxp3^+ T cells generated in co-cultures with sham or OVA323-339+UFP-pulsed alveolar macrophages without or with IL-1B, IL-25, IL-33, TSLP or TNFa. (FIG. 7E) ChIP assays for the binding of STAT3 and control (IgG) antibodies to the Notch1, 2 and 3 promoters in lung Treg cells of OVA+UFP-treated Foxp3^YFPCre, and Foxp3^YFPCreStat3^Δ/Δ mice. Each symbol represents one mouse. Numbers in flow plots indicate percentages. Error bars indicate SEM. Statistical tests for all panels: One-way ANOVA with Dunnett’s post hoc analysis. *P<0.05, **P<0.01, ***P<0.001, ****P<0.0001. Data representative of two or three independent experiments. N = 5-10 replicas per group.
# To examine signals driving the induction of Notch4 on iTreg cells, the inventors employed an in vitro iTreg cell differentiation system in which OT-II T cell receptor (TCR) transgenic T cells, specific for the OVA323-339 peptide, were incubated with isolated primary alveolar macrophages (AM). […] Chromatin immunoprecipitation assays confirmed IL-6-dependent inducible binding of STAT3 to the Notch4 promoter in Treg cells, but not to those of Notch1, Notch2 or Notch3, which was abrogated by Stat3 deletion (FIG. 1I; […]).
# [3] = system: Notch4 on differentiating Treg cells; experiment: antigen presenting cell-free in vitro iTreg cell differentiation (anti-CD3+anti-CD28 mAbs, TGF-β1); assay type: cell-based, mouse; conditions: naive T cells
# Excerpt: as §2, with “Statistical tests for all panels: One-way ANOVA with Dunnett’s post hoc analysis. *P<0.05, **P<0.01, ***P<0.001, ****P<0.0001. Data representative of two or three independent experiments. (FIGS. 1A, 1D to 1F) n=5, (FIGS. 1B and 1C) n=15 and (FIGS. 1G and 1H) n=6 replicates per group.” left out
# [4] = system: Notch4 expression on Treg cells; experiment: Notch4 expression on peripheral blood Treg cells of a severe asthmatic subject before and after therapy; assay type: in vivo, human; conditions: post therapy
# Excerpt: In contrast, Notch4 expression on circulating CD4^+ Teff cells was low and remained relatively flat as a function of asthma severity (FIG. 6B). Also, expression of Notchl-3 on Treg and Teff cells was not increased in asthmatics as compared to control subjects (FIGS. 17A-17I). Notch4 expression was restricted to the Helios^low iTreg cell subpopulation (FIG. 6C). […] Also, there were increased concentrations of GDF 15 in the sera of moderate and severe asthmatics that positively correlated with circulating Treg cell Notch4 expression (FIG. 6F).
# [5] = system: IL-13 expression in naive ILC2; experiment: in vitro cultures of ILC2 derived from naive mice stimulated with GDF15, IL-33 or both; assay type: cell-based, mouse
# Protocol: as §1
# [6] = OVA+UFP treated Foxp3YFPCreNotch4Δ/Δ mice, intra-tracheal instillation
molecule,measurement,setting,value
"GDF15 blocking peptide: GDF15 inhibitory peptide, KTSLHRLKPDTVPAPC (SEQ ID NO: 1; amino acids 258-273 of the full length GDF15 gene product) (listed as Homo sapiens)",upregulation of IL13 expression in naive ILC2 by Notch4high Treg cells,GDF15,reversed
same,"AHR, tissue inflammation, IL-4 and IL-13 expression in Teff cells (allergic airway inflammation)","[1]; OVA+UFP treated Foxp3YFPCre mice, instillation",downregulated the aforementioned changes; also recorded: attenuates allergic airway inflammation
IL-1β: cytokine added to cell cultures,Notch4 expression on differentiating iTreg cells,[2],not
IL-6: interleukin-6 cytokine added to cell cultures,Notch4 expression on differentiating iTreg cells,[2],super-induction of Notch4 expression
same,Notch4 on differentiating Treg cells,[3],induced Notch4 on differentiating Treg cells
TNFa,Notch4 expression on differentiating iTreg cells,[2],not
TSLP: cytokine added to cell cultures,Notch4 expression on differentiating iTreg cells,[2],not
Tocilizumab: anti-IL-6R mAb (anti-IL-6Ra chain mAb),Notch4 expression on patient Treg cells,[4],decreased Notch4 expression
same,Notch4 expression on patient Treg cells,[4]; listed as tocilizumab,substantially attenuated Notch4 expression
B1,Notch4 expression induced by IL-6,[2]; added together with IL-6,further upregulated the expression of Notch4
same,Notch4 expression on differentiating iTreg cells,[2],did not induce Notch4 on its own
B2,IL-13 expression in ILC2 derived from naive mice,[5]; alone,upregulated IL-13 expression alone
same,IL-13 expression in ILC2 derived from naive mice,[5]; in combination with IL-33,especially in synergy with IL-33
same,AHR and tissue inflammation,[1]; [6],upregulated the AHR and tissue inflammation
same,IL-4 and IL-13 expression in Teff cells,[1]; [6],increasing IL-4 and IL-13 expression in Teff cells
same,AHR and tissue inflammation,"[1]; OVA+UFP treated Foxp3YFPCreNotch4Δ/Δ mice, intra-tracheal instillation, listed as GDF15",restores airway inflammation
B3,Notch4 expression on differentiating iTreg cells,[2],not
